Consider two molecules from publication PMC5760719, “Biotransformation of polyunsaturated fatty acids to bioactive hepoxilins and trioxilins by microbial enzymes” (Nature Communications, 2018).

Common to all, as to experiment: product formation by HPLC
Format in all cases: biochemical

Assay [1] concerns the target T1, 12-LOX (ARA 12-lipoxygenase, MXAN_1745) (Myxococcus xanthus, UniProt Q1DBH8).
T1 sequence (Q1DBH8 1-715): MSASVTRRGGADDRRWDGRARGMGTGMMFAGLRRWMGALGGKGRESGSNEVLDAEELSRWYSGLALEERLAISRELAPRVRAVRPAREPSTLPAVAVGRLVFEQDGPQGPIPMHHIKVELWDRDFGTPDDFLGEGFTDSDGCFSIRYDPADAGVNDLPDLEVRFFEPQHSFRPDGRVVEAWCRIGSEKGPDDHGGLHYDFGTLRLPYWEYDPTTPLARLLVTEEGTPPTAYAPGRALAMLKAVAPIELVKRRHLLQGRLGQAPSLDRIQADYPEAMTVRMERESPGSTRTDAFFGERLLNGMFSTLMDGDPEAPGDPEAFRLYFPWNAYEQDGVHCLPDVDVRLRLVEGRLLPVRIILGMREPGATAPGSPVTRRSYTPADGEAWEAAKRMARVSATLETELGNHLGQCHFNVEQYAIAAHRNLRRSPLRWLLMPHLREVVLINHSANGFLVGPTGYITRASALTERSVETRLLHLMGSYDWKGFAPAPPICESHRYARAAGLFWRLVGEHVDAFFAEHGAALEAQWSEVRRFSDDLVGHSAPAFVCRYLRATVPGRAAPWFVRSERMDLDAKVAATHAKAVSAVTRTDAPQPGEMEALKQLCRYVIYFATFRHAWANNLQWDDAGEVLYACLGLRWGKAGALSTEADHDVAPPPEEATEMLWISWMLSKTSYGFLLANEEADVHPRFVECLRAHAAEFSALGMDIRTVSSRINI
The note with it: pathway reaction with purified enzyme; dioxygenation to 12-HpEPE.

Assay [2] addresses T2, 11-LOX (ARA 11-lipoxygenase, MXAN_1744) (Myxococcus xanthus, UniProt Q1DBH9).
T2 sequence (Q1DBH9 1-675): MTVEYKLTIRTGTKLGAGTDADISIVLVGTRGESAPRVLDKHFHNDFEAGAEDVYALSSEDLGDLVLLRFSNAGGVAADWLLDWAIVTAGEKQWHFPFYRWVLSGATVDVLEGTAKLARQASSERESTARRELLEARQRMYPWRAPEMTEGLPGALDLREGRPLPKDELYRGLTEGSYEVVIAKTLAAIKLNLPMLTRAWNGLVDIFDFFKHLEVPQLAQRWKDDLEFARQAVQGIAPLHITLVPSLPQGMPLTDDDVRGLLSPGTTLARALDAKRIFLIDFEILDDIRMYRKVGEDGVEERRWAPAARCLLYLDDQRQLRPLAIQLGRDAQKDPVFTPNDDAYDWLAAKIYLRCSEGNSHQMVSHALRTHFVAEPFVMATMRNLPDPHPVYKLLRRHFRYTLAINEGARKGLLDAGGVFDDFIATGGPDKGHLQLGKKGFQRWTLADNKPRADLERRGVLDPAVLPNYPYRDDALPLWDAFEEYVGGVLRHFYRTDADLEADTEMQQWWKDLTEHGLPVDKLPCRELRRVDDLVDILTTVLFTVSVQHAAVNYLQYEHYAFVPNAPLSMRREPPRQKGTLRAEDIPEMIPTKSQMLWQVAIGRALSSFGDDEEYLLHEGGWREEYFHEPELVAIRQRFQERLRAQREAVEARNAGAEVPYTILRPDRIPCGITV
The settings on record: pathway reaction with purified enzyme; dioxygenation to 11-HpEPE.

The target in assay [3] is T3, EH (epoxide hydrolase, MXAN_1644) (Myxococcus xanthus, UniProt Q1DBS7).
T3 sequence (Q1DBS7 1-318): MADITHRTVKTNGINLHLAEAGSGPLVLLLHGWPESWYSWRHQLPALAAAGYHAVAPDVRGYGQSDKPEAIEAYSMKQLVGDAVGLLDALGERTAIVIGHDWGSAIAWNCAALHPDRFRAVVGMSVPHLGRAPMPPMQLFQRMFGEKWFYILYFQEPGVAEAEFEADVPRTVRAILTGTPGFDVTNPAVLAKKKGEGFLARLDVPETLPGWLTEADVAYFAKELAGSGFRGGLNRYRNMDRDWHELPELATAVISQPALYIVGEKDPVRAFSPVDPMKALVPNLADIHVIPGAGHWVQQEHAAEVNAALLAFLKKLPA
The note with it: pathway reaction with purified enzymes; HXD3 formed by 11-LOX, hydrolysis to TrXD3.

On to `CC/C=C\C/C=C\C/C=C\C/C=C\C/C=C\CCCC(=O)O` [EPA, eicosapentaenoic acid], for which the “product formation by HPLC” value in assay [1] was 12-LOX and 11-LOX converted EPA to 12-hydroperoxypentaenoic acid (HpEPE) and 11-HpEPE, respectively; in assay [2] it was 12-LOX and 11-LOX converted EPA to 12-hydroperoxypentaenoic acid (HpEPE) and 11-HpEPE, respectively.

Turning to `CCCCC/C=C\C(O)C1OC1C/C=C\C/C=C\CCCC(=O)O` (stereo not drawn) [HXD3], the “product formation by HPLC” value in assay [3] is “HXB3 and HxD3, respectively, which were then converted to TrXB3 and TrXD3, respectively, by EH”.
